How the values were obtained:
[1] = system: primary rat embryonic cortical neurons; assay: In vitro dendritogenesis and spinogenesis assays, Sholl analysis; type: cell-based
Protocol: The ability of the “E559 polymorph” to induce neural plasticity was evaluated in vitro. In vitro dendritogenesis and spinogenesis assays were conducted using primary rat embryonic cortical neurons. Briefly, cultured primary cortical neurons (rat) were treated at day in vitro (DIV) 3 for 3 hours with increasing concentrations (1, 10 and 100 nM, 1 and […]) of the “E559 polymorph” and morphological changes in dendritic arbor complexity (dendritogenesis) were assessed at DIV6 by immunofluorescent staining of fixed neurons with microtubule-associated protein 2 (MAP2, a microtubule marker), F-actin (cytoskeletal marker), and phalloidin (actin filament marker) followed by fluorescent microscopy and Sholl analysis of neurons' images. […] The spine density assessments (spinogenesis) were made on DIV 18. The cell viability assessments were made on DIV 6 by using the Neurite Outgrowth Staining Kit which includes fluorescent probes for dead and live neuronal cells. Ketamine was used as a comparator and positive control. Ketamine is known to induce dendritogenesis and its effects on synaptic plasticity are believed to mediate its antidepressant effects (Aguilar-Valles et al., Nature, 2021, 590, p315-319). Representative images of MAP2 stained rat cortical neurons treated with vehicle (no drug control) or with “E559 polymorph” is shown in FIG. 18A.
Horizontal lines in all figure panels represent the means±standard error of the mean (S.E.M.).

stress naive mice = assay: Forced swim test (FST), stress naive mice; type: in vivo, mouse
Protocol: In brief, stress naive mice were treated (IP injection) with either saline (control) or single dose of the “E559 polymorph” at 0.3, 1, or 3 mg/kg dose levels and were evaluated 24 hours (OFT) and […] after treatment. The OFT was performed described in Example 13. The FST was performed as previously described in (Aguilar-Valles et al., Nature, 2021, 590, p315-319). Briefly FST was performed 24-hour post treatment by placing the mice (one by one) in a 4-liter wide-mouthed flask of 35° C. water. Mice activities were recorded for 6 minutes and assessed for total time the animal remains immobile, a sign of depressive-like behavior. FIG. 25A depicts the study design where female/male mice (n=10/group/sex) were treated by IP injection with the “E559 polymorph” or vehicle (saline) followed by open field and force swim test 24 hours post treatment. FIGS. 25B and 25E represent the total distance travelled in the open field test 24 hours after vehicle or the “E559 polymorph” in female and male mice, respectively. FIGS. 25C and 25F represent the time in the center of the open field by female and male mice, respectively. FIGS. 25D and 25G represent the immobility time during the last 4 minutes of the forced swim test in female and male mice, respectively. Horizontal lines represent the mean±standard error of the mean (S.E.M.) and asterisks indicate statistical significances.

[2] = Single-dose comparative pharmacokinetic study, IV and oral, fasted and fed; type: in vivo, Beagle dogs
Protocol: A single-dose comparative pharmacokinetic (PK) study was conducted in Beagle dogs to assess the oral bioavailability and the effect of food on the “E559 polymorph” (FIG. 12). Four male dogs were used in 3 test groups in a cross-over design with at least 3 days washout period between each test group (Groups 1, 2 and 3). In Group 1, four male dogs received a single intravenous (IV) dose of 0.0324 mg/kg of the “polymorph E559”. In Group 2 the same four dogs received a single oral dose of 0.324 mg/kg of the “polymorph E559” in fasted state. In Group 3 the same four dogs received a single oral dose of 0.324 mg/kg of the “E559 polymorph” in the fed state (same oral dose amount as in Group 2). Blood samples were collected from all dogs at pre-dose and 0.08, 0.25, 0.5, 1, 2, 4, 8, and 24 hours post dose to measure the “E559 polymorph” levels by LC-MS/MS method conducted as described in Example 3.

[3] = system: prefrontal cortex region of mice; assay: Spine density analysis in the prefrontal cortex after FST; type: in vivo, mouse; conditions: both sexes, 1 mg/kg, ~26 hour after treatment
Protocol: Following testing in the FST, brains were collected for spine density analysis in the prefrontal cortex region (˜26 hour after treatment; FIG. 25H).

C57BL/6J mice = assay: Chronic variable stress (CVS) mouse model, open field test and splash test; type: in vivo; conditions: for CVS induced decrease of time in center of open field: female mice
Protocol: The “polymorph HT compound” (from Example 1) was tested for its anti-depression/anxiety activity in the chronic variable stress (CVS) mouse model as assessed by a self-grooming splash test and an open field test (OFT) [Strekalova et al., Psychopharmacology (Berl). 2022, 239(3):663-693; Willner, P. Neurobiol Stress, 2017, 6:78-93]. In brief, C57BL/6J mice were subjected to a CVS protocol, consisting of 2 stressors per day for 35 days. Naive mice (not exposed to CVS) are used as a control for CVS-induced depression activity. Following the 35 days CVS, mice were treated with the “E559 polymorph” (FIG. 23) via intraperitoneal injection (IP) as follows: single dose after the last day of CVS (3 mg/kg) or 4 doses (1 mg/kg) applied every 48 hours starting on day 28 of CVS. Saline was used as the vehicle control. The splash test and OFT were performed as previously described in (Aguilar-Valles et al., Nature, 2021, 590, p315-319). […] FIG. 23B represents distance travelled in the open field by female mice treated with E559 polymorph. FIG. 23C represents time spend in the center of the open field of mice in FIG. 23B. […] Horizontal lines represent the mean±standard error of the mean (S.E.M.) and asterisks indicate statistical significances.

CCN(CC)C(=O)[C@@H]1C=C2c3cccc4[nH]c(Br)c(c34)C[C@H]2N(C)C1 [E559, (5R, 8R)-2-Bromo-9,10-didehydro-N,N-diethyl-6-methylergoline-8-carboxamide hemi-D-tartrate]
lowest concentration at which increase in neuronal plasticity reached statistical significance ([1]; 3 hours treatment at DIV3): 1 µM | lowest concentration at which increase in neuronal plasticity was detectable ([1]; 3 hours treatment at DIV3): 1 nM | total length of the dendritic arbor ([1]; DIV6, 1 and 10 μM): total length of the dendritic arbor was also increased | total dendrites crossing the Sholl radii ([1]; DIV6, 1 and 10 μM significant vs control): significantly increased the number of total dendrites crossing the Sholl radii | spine density ([1]; DIV 18, 3-hour incubation at 1 and 10 μM): increased the spine density | decrease in immobility (stress naive mice; female mice, IP 1 mg/kg): 35.18 ± 10.03 s | decrease in immobility (stress naive mice; male mice, IP 1 mg/kg): 27.27 ± 8.226 s | decrease in immobility (stress naive mice; male mice, IP 3 mg/kg): 31.36 ± 8.226 s | oral bioavailability ([2]; oral 0.324 mg/kg vs IV 0.0324 mg/kg): good oral bioavailability | effect of food on oral bioavailability ([2]; oral 0.324 mg/kg, fasted vs fed): no differences in the mean absolute and relative oral bioavailability between fasted and fed dogs | average spine density in prefrontal cortex [3]: significant increase in the average spine density | CVS effect on time in center in OFT, 28 days after the last treatment (C57BL/6J mice; 4×1 mg/kg): remained reversed | locomotion (total distance travelled) in open field, CVS mice (C57BL/6J mice; 4×1 mg/kg): without affecting locomotion | time spent self-grooming in the splash test (C57BL/6J mice; female CVS mice): partially reversed this CVS-induced effect | CVS induced decrease of time in center of open field (C57BL/6J mice; IP 4 doses of 1 mg/kg every 48 hours): fully reversed to the levels seen in the control | CVS induced decrease of time in center of open field (C57BL/6J mice; IP single dose of 3 mg/kg): partially restored the effect of CVS
